Measured values taken from patent US9321770B2, “Crystals of pyrroloquinolinequinone sodium salts” (MITSUBISHI GAS CHEMICAL COMPANY, INC., priority 2009, dated 2016).
Where a name gives a salt, the structure may show the parent alone.

Assay: Thermal analysis: thermogravimetry (TG) and differential thermal analysis (DSC)
Type: physicochemical
Conditions: under air flow; for thermal stability of the solids (thermal analysis): temperature increased at 10° C./minute
Protocol: The obtained solids were subjected to thermogravimetry (TG) and differential thermal analysis (DSC) using Thermo plus EVO TG8120 manufactured by Rigaku Corporation. The temperature was increased under air flow at a rate of 10° C./minute.

Structure (SMILES) | temperature from which reduction in the weight was observed (10° C./minute) | thermal stability of the solids (thermal analysis) (disodium salt) | temperature up to which there was no change (except evaporation of water at about 100° C.) (10° C./minute) | thermal stability of the solids (thermal analysis) (trisodium salt)
O=C(O)c1cc(C(=O)O)c2c(n1)C(=O)C(=O)c1cc(C(=O)O)[nH]c1-2 [Comparative Example 1, PQQ disodium salt] | about 30 °C | unstable | – | –
O=C(O)c1cc(C(=O)O)c2c(n1)C(=O)C(=O)c1cc(C(=O)O)[nH]c1-2 [Comparative Example 2, PQQ disodium salt] | – | low thermal stability | – | –
O=C(O)c1cc(C(=O)O)c2c(n1)C(=O)C(=O)c1cc(C(=O)O)[nH]c1-2 [Example 2, pyrroloquinoline quinone disodium salt] | – | very stable | 270 °C | –
O=C(O)c1cc(C(=O)O)c2c(n1)C(=O)C(=O)c1cc(C(=O)O)[nH]c1-2 [Example 4, pyrroloquinoline quinone trisodium salt] | – | – | – | very high thermal stability
